# Results taken from patent US20250269000A1, “ANTI-TUMOUR RESPONSES TO CYTOKERATINS” (SCANCELL LIMITED, priority 2020, published 2025).
# Where a SMILES comes first, the peptide text is derived from it. Where no end group is shown, it is not given here. [ ]: non-standard residue; d: D form. Cit = NC(=O)NCCC[C@H](N)C(=O)O
# Tests used:
# B16 tumour cells = assay: Tumour challenge, B16 in C57BL/6 mice; assay type: in vivo, mouse; settings: immunised tumour bearing C57BL/6 mice
# Protocol: C57BL/6 were challenged with B16 tumour (parental non-transfected cell line). Four days later the C57BL/6 mice were immunised with Cyk8 8-26 cit peptide. Overall survival (A), tumour volume (B) at day 13 and tumour volume throughout the study (C), post tumour implant are shown for unimmunised control mice and mice immunised with Cyk8 8-26 cit peptide. Statistical differences between immunised and control mice were determined by Mantel-Cox test, p values are shown. The tumour volume medians and p values are shown as determined by Mann Whitney U test, n=10 in all group.
# For tumour challenge experiments, mice were challenged with 1×10^5 B16 HHDII/iDP4 cells subcutaneously on the right flank […] before primary immunisation (unless stated otherwise) and then immunised as described above. Tumour growth was monitored at 3-4 days intervals and mice humanely euthanised once tumour reached ≥10 mm in diameter.
# The effect of immunisation with Cyk8 8-26 cit on the growth of the mouse B16 melanoma cell line was assessed in C57BL/6. Mice were challenged with B16 tumour cells 3 days prior to immunisation with Cyk8 8-26 cit.
# [1] = system: HHDII/DP4 transgenic mice; assay: Ex vivo IFNγ ELISpot on splenocytes of peptide-immunised HHDII/DP4 mice; assay type: in vivo, mouse; settings: for IFNγ responses detected in immunised mice: 25 μg peptide s.c. with CpG/MPLA once a week for three weeks, ELISpot 7 days after third immunisation; for cross-reactivity of the response to the wt version: HHDII/DP4 mice immunised with cit peptide; for IFNγ response to citrullinated peptide compared to media only: screening, HHDII/DP4 mice, 25 μg peptide with CpG/MPLA weekly for three weeks; for T cell responses in HLA-DP4 transgenic mice / reactivity to the unmodified wildtype sequence: summary statement
# Protocol: The HHDII/HLA-DP4 transgenic strain of mouse as described in patent WO2013/017545 A1 (EMMA repository, France) and C57BL/6 mice (Charles River, UK) were used, aged between 8 and 12 weeks, and cared for by the staff at Nottingham Trent University. All work was carried out under a Home Office project licence. Peptides were dissolved in 10% dimethylformamide to 1 mg/mL and then emulsified (a series of dilutions) with the adjuvant CpG and MPLA 6 μg/mouse of each (Invivogen, UK). Peptides (25 μg/mouse) were injected subcutaneously at the base of the tail.
# ELISpot assays were performed using murine IFNγ capture and detection reagents according to the manufacturer's instructions (Mabtech, Sweden). In brief, anti-IFNγ antibody was coated onto wells of a 96-well Immobilin-P plate. Synthetic peptides (at a variety of concentrations) and 5×10^5 per well splenocytes were added to the wells of the plate in triplicate. LPS at 5 μg/mL was used as a positive control. Peptide pulsed target cells were added where relevant at 5×10^4 per well in triplicate and plates incubated for 40 hours at 37° C. After incubation, captured IFNγ was detected by a biotinylated anti-IFNγ antibody and developed with a streptavidin alkaline phosphatase and chromogenic substrate. Lipopolysaccharide (LPS; 5 μg/mL) was used as a positive control. For blocking studies, anti-CD4 blocking antibody (RPA-T4) and anti-CD8 blocking antibody (2.43) from Bioxcell were used at 20 μg/mL. Spots were analysed and counted using an automated plate reader (Cellular Technologies Ltd).
# HHDII/DP4 and C57BL/6 mice were immunised with human citrullinated peptides in combination with CpG/MPLA as an adjuvant. 25 μg of peptide was administered subcutaneously as a single immunisation given once a week for three weeks Mice were culled 7 days after the third immunisation, the immune response to each peptide was assessed by ex vivo IFNγ ELISpot (FIG. 2). We have previously shown that citrullinated peptides can induce responses in the transgenic DR4 mouse strain. Given that different mouse strains have different MHC repertoires, the transgenic strain HHDII/DP4 and non-transgenic C57BL/6 mice were used for screening.
# To determine if the immune response to the Cyk8 peptides is specific to the citrullinated peptide and not the wild type (wt) version, HHDII/DP4 transgenic mice were immunised with Cyk8 101-120 cit, 133-151 cit, 217-236 cit, 371-388 cit, 381-399 cit or Cyk8 101 wt, 133-151 wt, 371-388 wt peptides. HHDII/DP4 mice received 25 μg peptide with CpG/MPLA subcutaneously once a week for three weeks. Mice were culled 7 days after the third immunisation, the immune response to each peptide was assessed by ex vivo ELISpot (FIGS. 3A and 3B).
# To determine whether the response to Cyk8 8-26 cit, Cyk8 101-120 cit, Cyk8 133-151 cit, Cyk8 371-388 cit, Cyk8 381-399 cit is CD4 dependent HHDII/DP4 transgenic mice and C57BL/6 mice received 25 μg peptide subcutaneously in combination with CpG/MPLA as an adjuvant, once a week for three weeks (FIG. 6A HHDII/DP4, FIG. 6B C57BL/6). Mice were culled 7 days after the third immunisation, an ELISpot assay was performed in the presence of an anti CD4 or CD8 antibody. […]
# [2] = system: splenocytes of immunised HHDII/DP4 mice; assay: Peptide titration (avidity of T cell response) by IFNγ ELISpot; assay type: cell-based, mouse; settings: peptide titration 0.001 to 10 μg/ml
# Protocol: Transgenic mouse strains expressing HHDII/DP4 and parental C57BL mice were used to screen for IFNγ responses to peptide (A and B respectively). Mice were immunised with peptide pools of up to 2-3 non-overlapping human Cyk8 citrullinated peptides over three weeks. Splenocytes were harvested 21 days after the initial dose was administered. Ex vivo responses to stimulation with human Cyk8 cit peptides was assessed by IFNγ ELISpot. Media only responses were used as a negative control. n≥3 symbol represents mean response for individual mice, line represents median value between mice. Statistical significance of peptide response was compared to media only responses for each pool and determined using ANOVA with Dunnett's post-hoc test * […], ** p<0.01, *** p<0.001, **** p<0.0001, only significant p values are shown. […]
# ELISpot assays were performed using murine IFNγ capture and detection reagents according to the manufacturer's instructions (Mabtech, Sweden). […] After incubation, captured IFNγ was detected by a biotinylated anti-IFNγ antibody and developed with a streptavidin alkaline phosphatase and chromogenic substrate. […] Spots were analysed and counted using an automated plate reader (Cellular Technologies Ltd).
# Significant IFNγ responses were detected to human Cyk8 citrullinated peptides in transgenic HHDII/DP4 mice (FIG. 2A) and C57BL/6 mice (FIG. 2B). […]
# [3] = HHDII/DP4, blocking antibody 20 μg/mL
log EC50 (avidity of T cell response) ([2]; unit not given) [to-5.9],log EC50 (avidity of T cell response) [2] [to-6.5 M],Compound,associated toxicity (B16 tumour cells),IFNγ responses detected in immunised mice [1],cross-reactivity of the response to the wt version [1],IFNγ response to citrullinated peptide compared to media only [1],T cell responses in HLA-DP4 transgenic mice [1],reactivity to the unmodified wildtype sequence [1],"IFNγ response in the presence of the CD8 antibody [1, 3]","IFNγ response in the presence of the anti CD4 antibody [1, 3]"
,,"CC(C)[C@H](NC(=O)[C@H](CCCCN)NC(=O)[C@H](Cc1ccc(O)cc1)NC(=O)[C@H](CO)NC(=O)[C@@H](N)CCCCN)C(=O)N[C@@H](CO)C(=O)N[C@H](C(=O)N[C@@H](CO)C(=O)NCC(=O)N1CCC[C@H]1C(=O)N[C@@H](CCCNC(N)=O)C(=O)N[C@@H](C)C(=O)N[C@@H](Cc1ccccc1)C(=O)N[C@@H](CO)C(=O)N[C@@H](CO)C(=O)N[C@@H](CCCNC(N)=O)C(=O)N[C@@H](CO)C(=O)N[C@@H](Cc1ccc(O)cc1)C(=O)N[C@H](C(=O)O)[C@@H](C)O)[C@@H](C)O [Cyk8 8-26 cit, KSYKVSTSGP-cit-AFSS-cit-SYT] (H-KSYKVSTSGP[Cit]AFSS[Cit]SYT-OH)",no associated toxicity,,,,,,,
-5.0,,"LTDEINFL-cit-QLYEEEI-cit-ELQ (LTDEINFL[Cit]QLYEEEI[Cit]ELQ) [Cyk8 217-236 cit, Cyk8 217-236, citrullinated at positions 225 and 233]",,Moderate to high,no cross-reactivity,significant immune responses,potent T cell responses,minimal reactivity,,
,-6.0,"cit-SNMDNMFESYINNL-cit-cit-QL ([Cit]SNMDNMFESYINNL[Cit][Cit]QL) [Cyk8 133-151 cit, Cyk8 133-151, citrullinated at position 133, 148 and 149]",,Moderate to high,no cross-reactivity,significant immune responses,potent T cell responses,minimal reactivity,not significantly reduced,not significantly reduced
